# Experimental data taken from patent publication US7893041B2, “Oligosaccharide compositions and use thereof in the treatment of infection” (Children's Hospital Medical Center, priority 2003, dated 2011).
# B1: Ulex europaeus lectin: lectin that binds to H-2 ligands (protein, UniProt P22972 1-243, looked up)
# Anti-H(O) lectin 1: SDDLSFKFKNFSQNGKDLSFQGDASVIETGVLQLNKVGNNLPDETGGIARYIAPIHIWNCNTGEVASFITSFSFFMETSANPKAATDGLTFFLAPPDSPLRRAGGYFGLFEDTKDNDSSYQTVAVEFDTIGSPVNFDDPGFPHIGIDVNRVKSINAERWNKRYGLNNVANVEIIYEASSKTLTASLTYPSDQTSISVTSIVDLKEILPEWVSVGFSGGTYIGRQATHEVLNWYFTSNLINTNS
# Key:
# [1] = system: Campylobacter; test: Ex vivo inhibition of Campylobacter colonization of human intestinal mucosa; details: FIG. 9B
# Procedure: FIGS. 9A and 9B are a pair of graphs depicting the results of an study showing inhibition of Campylobacter colonization in BALB/c mice fed with 2 mg of milk fucosylated oligosaccharides given during challenge with 10^4 and 10^8 CFU of bacteria (left). Ex vivo assays of inhibition of human gut colonization of Campylobacter with 2′-fucosyllactose (2′-FL) and milk fucosylated oligosaccharides (OS).
# [2] = system: Campylobacter jejuni; test: Cohort of breastfed mother-infant pairs: milk oligosaccharide vs C. jejuni-associated diarrhea; assay type: in vivo, human; details: for Association of rates of C. jejuni diarrhea during breastfeeding with oligosaccharide as a percent of milk oligosaccharide: breastfed infants, 2′-FL P=0.004, LDFH-I P=0.047 (not persisting after controlling for 2′-FL)
# Excerpt: (§1) A cohort of 316 mother-infant pairs was enrolled and monitored from birth to two years postpartum in San Pedro Martir, a transitional neighborhood of Mexico City. Enrollment was restricted to term, normal birthweight infants. This research was approved by institutional review boards in Mexico and Cincinnati. Written informed consent was obtained from mothers who participated. Infant illness and feeding history were collected by trained field workers who made weekly home visits. Milk samples were collected from mothers weekly in the first month, and monthly thereafter. Samples were collected in the morning by an experienced study nurse using an Egnell electric breast pump to obtain the complete content of one breast. Samples were transported on ice from the study household to the laboratory, where they were stored at −70° C. Infant stool samples were collected weekly with additional samples obtained whenever diarrhea occurred. Diarrhea samples were routinely tested for Campylobacter jejuni, diarrheagenic E. coli, Shigella, Salmonella, Aeromonas, and rotavirus, as detailed in previous publications (129, 136-138). […] Diarrhea episodes were defined throughout the study as three or more watery stools within a 24-hour period or loose-to-watery bowel movements that exceeded the child's usual daily stool frequency by two or more stools as determined by a study physician. […] Classification of disease severity was based on the standardized history of each diarrhea episode recorded by a study physician, and was blind to and independent of milk oligosaccharide analysis. Diarrhea was attributed to campylobacter or calicivirus if the pathogen was detected in a stool sample collected during or within seven days of an episode of diarrhea. […]
# Milk samples were transported to Boston and analyzed as described previously(143). Milk oligosaccharides were isolated, perbenzoylated, and resolved by reversed-phase HPLC (C-8) with an acetonitrile/water gradient and detected at 229 nm. […]
# [3] = system: calicivirus; test: Cohort of breastfed mother-infant pairs: milk oligosaccharide vs calicivirus-associated diarrhea; assay type: in vivo, human
# Excerpt: as §1, with “thereafter.” for “thereafter. Samples were collected in the morning by an experienced study nurse using an Egnell electric breast pump to obtain the complete content of one breast. Samples were transported on ice from the study household to the laboratory, where they were stored at −70° C. Infant stool samples were collected weekly with additional samples obtained whenever diarrhea occurred. Diarrhea samples were routinely tested for Campylobacter jejuni, diarrheagenic E. coli, Shigella, Salmonella, Aeromonas, and rotavirus, as detailed in previous publications (129, 136-138).”
# Milk samples were transported to Boston and analyzed as described previously(143). […]
# [4] = system: V. cholerae; details: previous studies (ref. 86); cited from earlier work
# [5] = system: campylobacter adherence to intestinal epithelial cells; details: early studies (ref. 80); cited from earlier work
# [6] = system: Campylobacter binding to FUT1-CHO cells; test: Inhibition of Campylobacter binding to FUT1-transfected CHO cells; assay type: cell-based, Campylobacter jejuni; details: FIG. 7
# Excerpt: α1,2-fucosyltransferase-transfected CHO cells (CHO-FUT1), α1,3/4-fucosyltransferase-transfected CHO cells (CHO-FUT3), and α1,3-fucosyltransferase-transfected CHO cells (CHO-FUT4), and parental CHO cells transfected with the vector pCDM7 lacking the α1,2 FUT gene (CHO-WT) can be used to test bacterial binding and bacterial/host cell agglutination. Parental CHO cells with the vectors are used as controls.
# The binding of bacteria to CHO cells transfected with the human gene for α1,2-fucosyltransferase (FUT1), can be assessed by bacterial-cell association assay. […]
# Ligands, such as α1,2-fucosyl ligands and homologs are tested for their ability to inhibit binding of campylobacter and V. cholerae strains to CHO-FUT1 cells. For molecules that is bind to H-2 ligands, including anti-H-2 monoclonal antibodies (anti-H-2 MAbs) and the lectins Ulex europaeus (UEA I) and Lotus tetragonolobus (Lotus), inhibition is measured on monolayers of CHO-FUT1 cells incubated in 8-well chamber slides for 1 h with each of the α1,2-fucosyl ligands before adding 100 μL of the bacterial suspension containing 1×10^8 bacteria/mL. […] In both assays, after a 3 h incubation at 37° C., wells are rinsed, lysed with 1% Triton X100, and CFU (colony forming units) of bacteria per well are determined. […]
molecule,measurement,setting,value
2-Fucosyllactose [2′-FL],Inhibition of C. jejuni binding/colonization in human intestinal mucosa ex vivo,[1],inhibits
same,Association of rates of C. jejuni diarrhea during breastfeeding with oligosaccharide as a percent of milk oligosaccharide,[2],inversely associated
same,Campylobacter incidence in the intermediate and high groups compared to the low group,"[2]; tertiles (n=31) of 2′-FL as percent of milk oligosaccharide: low <0.29, intermediate 0.29-0.36, high >0.37, FIG. 6A",significantly (P<0.01) less
Lacto-N-difucohexaose I [LDFH-I],Association of rates of C. jejuni diarrhea during breastfeeding with oligosaccharide as a percent of milk oligosaccharide,[2],directly associated
same,Association of calicivirus diarrhea during breastfeeding with oligosaccharide as a percent of milk oligosaccharide,"[3]; breastfed infants, P=0.012, dose-dependent",inverse association
same,Calicivirus incidence in the high group compared to the low group,"[3]; tertiles (n=31) of LDFH-I as percent of milk oligosaccharide: low <0.07, intermediate 0.07-0.11, high >0.12, FIG. 6B",significantly (P=0.02) less
C[C@H](O)[C@@H](O)[C@@H](O)[C@H](O)C=O [L-fucose],Inhibition of hemagglutination produced by V. cholerae with human O erythrocytes,[4],inhibited
same,Inhibition of campylobacter adherence to intestinal epithelial cells,[5],inhibition
B1,"Inhibition of bacterial binding to α1,2-fucosyltransferase (FUT1)-transfected CHO cells",[6],specifically inhibited
